What all share (type): functional
Test [1] is described as follows: Antiproliferative activity against mouse MBEC assessed as inhibition of cell proliferation after 3 days by Coulter counter based cell counting method. The settings on record: 72 h.
A further test has as its system CCRF-CEM. Description: Antiproliferative activity against human CEM cells assessed as inhibition of cell proliferation after 96 hrs by Coulter counter based cell counting method.
The subject of a further test is L1210. Description: Antiproliferative activity against mouse L1210 assessed as inhibition of cell proliferation after 48 hrs by Coulter counter based cell counting method. The settings on record: L1210, 48 h.
Test [2] can be described thus: Antiproliferative activity against human HMEC1 cells assessed as inhibition of cell proliferation after 4 days by Coulter counter based cell counting method. To be noted: HMEC-1, 96 h.
Test [3] can be described thus: Antiproliferative activity against BAEC assessed as inhibition of cell proliferation after 3 days by Coulter counter based cell counting method. To be noted: Bos taurus, 72 h.
Test [4] concerns HeLa. The test is described as follows: Antiproliferative activity against human HeLa cells assessed as inhibition of cell proliferation after 4 days by Coulter counter based cell counting method. The settings on record: 96 h.
For test [5], the system named is HeLa. Description: Induction of cell cycle arrest in human HeLa cells assessed as accumulation at G2/M phase at 0.1 uM after 24 hrs by propidium iodide staining based flow cytometry (reference value: 31%).
In test [6] the test system is HeLa. Description: Induction of cell cycle arrest in human HeLa cells assessed as accumulation at S phase at 0.1 uM after 24 hrs by propidium iodide staining based flow cytometry (reference value: 24%).
The subject of test [7] is HeLa. Description: Induction of cell cycle arrest in human HeLa cells assessed as accumulation at G1 phase at 0.1 uM after 24 hrs by propidium iodide staining based flow cytometry (reference value: 45%).
Test [8] relates to HeLa. The test is described as follows: Induction of cell cycle arrest in human HeLa cells assessed as accumulation at subG1 phase at 0.1 uM after 24 hrs by propidium iodide staining based flow cytometry (reference value: 1%).
Test [9] has as its system HeLa. Description: Induction of cell cycle arrest in human HeLa cells assessed as accumulation at subG1 phase at 100 uM after 24 hrs by propidium iodide staining based flow cytometry (reference value: 1%).
Test [10] has as its system HeLa. Description: Induction of cell cycle arrest in human HeLa cells assessed as accumulation at subG1 phase at 20 uM after 24 hrs by propidium iodide staining based flow cytometry (reference value: 1%).
The test system of test [11] is HeLa. Description: Induction of cell cycle arrest in human HeLa cells assessed as accumulation at S phase at 20 uM after 24 hrs by propidium iodide staining based flow cytometry (reference value: 24%).
The subject of test [12] is HeLa. Description: Induction of cell cycle arrest in human HeLa cells assessed as accumulation at S phase at 100 uM after 24 hrs by propidium iodide staining based flow cytometry (reference value: 24%).
Test [13] relates to HeLa. Description: Induction of cell cycle arrest in human HeLa cells assessed as accumulation at G1 phase at 20 uM after 24 hrs by propidium iodide staining based flow cytometry (reference value: 45%).
Test [14] relates to HeLa. The test is described as follows: Induction of cell cycle arrest in human HeLa cells assessed as accumulation at G1 phase at 100 uM after 24 hrs by propidium iodide staining based flow cytometry (reference value: 45%).
Test [15] has as its system HeLa. The test is described as follows: Induction of cell cycle arrest in human HeLa cells assessed as accumulation at G2/M phase at 100 uM after 24 hrs by propidium iodide staining based flow cytometry (reference value: 31%).
The test system of test [16] is HeLa. Description: Induction of cell cycle arrest in human HeLa cells assessed as accumulation at G2/M phase at 20 uM after 24 hrs by propidium iodide staining based flow cytometry (reference value: 31%).
Test [17] concerns HeLa. Description: Induction of cell cycle arrest in human HeLa cells assessed as accumulation at G1 phase at 4 uM after 24 hrs by propidium iodide staining based flow cytometry (reference value: 45%).
Test [18] concerns HeLa. The test is described as follows: Induction of cell cycle arrest in human HeLa cells assessed as accumulation at S phase at 4 uM after 24 hrs by propidium iodide staining based flow cytometry (reference value: 24%).
Test [19] relates to HeLa. The test is described as follows: Induction of cell cycle arrest in human HeLa cells assessed as accumulation at subG1 phase at 4 uM after 24 hrs by propidium iodide staining based flow cytometry (reference value: 1%).
The test system of test [20] is HeLa. Description: Induction of cell cycle arrest in human HeLa cells assessed as accumulation at G2/M phase at 4 uM after 24 hrs by propidium iodide staining based flow cytometry (reference value: 31%).

Eleven molecules from ChEMBL document CHEMBL3352643, “Synthesis and antiproliferative activity of 6-phenylaminopurines” (Eur J Med Chem, 2014) can be followed below.

Turning to `COc1ccc(N(C)c2ncnc3c2nc(C)n3C)cc1`, the IC50 in test [1] is at least 100 µM; in the test with CCRF-CEM, above 250 µM; in the test on L1210 (read-out: IC50) it was above 250 µM; in test [2], at least 100 µM; in test [3], at least 100 µM; in the test with HeLa [4] it was above 250 µM.

Turning to `COc1ccc(Nc2nc(C)nc3c2nc(C)n3C)cc1`, the IC50 in test [1] is at least 100 µM; with CCRF-CEM, above 250 µM; with L1210 (read-out: IC50), at least 250 µM; in test [2] it was at least 100 µM; in test [3], at least 100 µM; in the test on HeLa [4] it was 197 µM.

Take `COc1cccc(N(C)c2nc(C)nc3c2nc(C)n3C)c1`: the IC50 in [1] is at least 100 µM; in the test on CCRF-CEM, above 250 µM; in the test on L1210 (read-out: IC50), above 250 µM; in test [2], at least 100 µM; in test [3], at least 100 µM; in the test on HeLa [4], above 250 µM.

Consider `COc1cc2c(c(OC)c1OC)-c1ccc(OC)c(=O)cc1[C@@H](NC(C)=O)CC2` [COLCHICINE], for which the IC50 was found to be 0.031 µM in test [1], 0.031 µM with CCRF-CEM, 0.014 µM in the test with L1210 and 0.0069 µM in test [3]. Also, the Activity stood at 80% in the test with HeLa [5], 10% in the test with HeLa [6], 5% in the test on HeLa [7] and 6% in the test with HeLa [8].

Take `Cc1ccc(N(C)c2nc(C)nc3c2nc(C)n3C)cc1`: the IC50 in test [1] is above 100 µM; with CCRF-CEM, 164 µM; in the test with L1210 (read-out: IC50), at least 250 µM; in test [2] it was above 100 µM; in test [3], above 100 µM; in the test with HeLa [4], at least 250 µM.

For the molecule `COc1ccc(N(C)c2nc(C)nc3[nH]c(C)nc23)cc1`, the Activity in the test on HeLa [9] was found to be 11%; in the test with HeLa [10] it was 5%; in the test on HeLa [11], 27%; in the test on HeLa [12] it was 15%; in the test with HeLa [13], 39%; with HeLa [14], 6%. Moreover, the Activity turned out to be 68% in the test with HeLa [15] and 31% in the test on HeLa [16]. For the same molecule, the IC50 in test [1] stood at 8.9 µM; in the test on CCRF-CEM, 23 µM; in the test with L1210 (read-out: IC50), 229 µM; in test [2], 7.1 µM; in [3], 8.9 µM; in the test with HeLa [4], 14 µM.

On to `COc1ccc(N(C)c2nc(C)nc3c2nc(C)n3C)cc1`, for which the Activity in the test with HeLa [9] was 14%; in the test on HeLa [10], 39%; with HeLa [11], 29%; with HeLa [12], 15%; in the test on HeLa [13], 18%; in the test with HeLa [14] it was 8%. Besides, the Activity with HeLa [15] worked out at 63%; in the test with HeLa [16], 25%. Moreover, the IC50 in [1] came to 8.7 µM; in the test with CCRF-CEM, 6.2 µM; with L1210 (read-out: IC50), 19 µM; in test [2] it was 7.3 µM; in test [3] it was 7.4 µM; with HeLa [4] it was 4.5 µM.

`Cc1nc(N(C)c2ccc(OC(F)(F)F)cc2)c2nc(C)n(C)c2n1`: the IC50 in test [1] is above 100 µM; with CCRF-CEM it was 132 µM; with L1210 (read-out: IC50), above 250 µM; in test [2] it was above 100 µM; in test [3] it was above 100 µM; in the test with HeLa [4], 188 µM.

For the molecule `CCN(c1ccc(OC)cc1)c1nc(C)nc2c1nc(C)n2C`, the Activity with HeLa [9] was 36%; with HeLa [10], 6%; in the test with HeLa [11] it was 27%; with HeLa [12], 18%; with HeLa [13], 39%; with HeLa [14], 12%. In addition, the Activity was 34% in the test on HeLa [15] and 28% with HeLa [16]. In addition, the IC50 in [1] was determined as 15 µM; with CCRF-CEM it was 16 µM; in the test with L1210 (read-out: IC50), 35 µM; in test [2], 8.8 µM; in [3], 11 µM; in the test on HeLa [4], 20 µM.

Regarding `COc1ccc(N(C)c2nc(C)nc3c2ncn3C)cc1`, the IC50 in [1] is 15 µM; in the test on CCRF-CEM, 21 µM; in the test with L1210 (read-out: IC50) it was 30 µM; in test [2], 9.2 µM; in [3] it was 9.3 µM; in the test on HeLa [4], 22 µM.

With `COc1ccc2c(c1)CCCN2c1nc(C)nc2c1nc(C)n2C`, the Activity is recorded as 8% in the test on HeLa [9]; 7% with HeLa [10]; 8% in the test on HeLa [11]; 8% with HeLa [12]; 3% with HeLa [13]; 35% in the test on HeLa [17]. Moreover, the Activity in the test with HeLa [18] came to 18%; in the test on HeLa [19], 20%; in the test on HeLa [14], 3%; with HeLa [15], 79%; in the test with HeLa [20], 27%; in the test on HeLa [16], 80%. Besides, the IC50 turned out to be 4.4 µM in test [1]; 3.5 µM with CCRF-CEM; 5.1 µM in the test with L1210 (read-out: IC50); 2.3 µM in test [2]; 2.4 µM in test [3]; 4.4 µM with HeLa [4].
